Patent publication US9279010B2, “Treatment of inflammatory bowel diseases with mammal beta defensins” (Defensin Therapeutics ApS, priority 2008, dated 2016)
Marks after values point to notes of the source that are not given here.

Key:
[1] = tested on: Dextran Sodium Sulphate (DSS)-induced colitis; test: 10-Day DSS-induced colitis model in the mouse (Example 2): Disease Activity Index and colon histology score; assay type: in vivo, mouse (male C57BL/6); set-up: key to DAI score: DAI score from stool, bleeding, weight loss; daily maximum 12; settings: for DAI score: 1 mg/kg p.o. daily
Excerpt: The aim of the following study was to determine the anti-inflammatory activity of human beta defensin 2 in an acute (10-days) model of inflammatory bowel disease (colitis) induced by oral dextran sodium sulphate (DSS) administration in the mouse.
Animals were divided into 5 experimental groups.
Colitis was induced in mice by supplementing their drinking water with DSS 2% for 7 days.
On Day 1 all mice were weighed and marked according to their experimental groups. The drinking bottle of each cage was filled with the DSS solution, making sure all bottle lids were mounted properly and that none were congested.
On Day 3 any remaining solution in the bottles was emptied and refilled with fresh DSS solution. This procedure was repeated again on Day 5.
On Day 8 any remaining solution was discarded and replaced with autoclaved water.
Animals were sacrificed 2 days later on Day 10.
Daily clinical assessment of DSS-treated animals was carried out, with the calculation of a validated clinical Disease Activity Index (DAI) ranging from 0 to 4 according to the following parameters: stool consistency, presence or absence of rectal bleeding and weight loss:
Bodyweight loss was calculated as the percent difference between the original bodyweight (Day 1) and the actual bodyweight on each experimental day (2-10).
The appearance of diarrhoea is defined as mucus/faecal material adherent to anal fur. Rectal bleeding is defined as diarrhoea containing visible blood/mucus or gross rectal bleeding. The maximum score of the DAI each day is 12.
Their colons were removed and their length and weight measured after exclusion of the caecum.
Two sections (proximal and distal) of colon were taken from each animal and preserved in neutral buffered formalin for subsequent histological analysis (haematoxylin and eosin staining) according to the following scoring system:
Two sections (proximal and distal) of colon were taken from each animal, processed for histological analysis (haematoxylin and eosin staining) and scored by a blind observer according to the histological scoring system described above.
(§1) The statistical significance of the results was evaluated using the statistics program Graphpad Instat 3. The difference between groups for disease activity index and histological score was evaluated by Kruskal-Wallis test for unpaired data plus post-test Dunn to allow for multiple comparisons. A value of p<0.05 was taken as significant.

TNF-α = test: Determination of TNF-alpha concentration in colonic tissue samples by ELISA (Example 2); assay type: in vivo, mouse (male C57BL/6); settings: 1 mg/kg p.o. daily for 10 days
Experimental: (§2) An additional sample of colon was obtained from each animal and homogenised in PBS (100 mg tissue/ml PBS) containing 1% bovine serum albumin (BSA) and a protease inhibitor cocktail (1 ml/20 g tissue). The homogenate was then be centrifuged at 1400 rpm for 10 min and the supernatant stored at −20° C. for subsequent determination of TNF-α concentration by specific enzyme immunoassay (ELISA).
[…]

[2] = tested on: Dextran Sodium Sulphate (DSS)-induced colitis; test: 10-Day DSS-induced colitis model in the mouse (Example 3): Disease Activity Index and colon histology score; assay type: in vivo
Experimental: Example 3 was carried out essentially as described in Example 2. The differences are indicated below.
Animals were divided into 9 experimental groups. […]
Methylprednisolone was given orally at a dose of 1 mg/kg (group H) and 10 mg/kg (group J) in a dosing volume of 5 ml/kg body weight, once daily for 10 consecutive days.
Two sections (proximal and distal) of colon were taken from each animal, processed for histological analysis (haematoxylin and eosin staining), and scored by a blind observer according to the scoring system described above.
as §1, with “data+post-test of” for “data plus post-test”, “Dunn” for “Dunn to allow”, “significant. In the tables above, significant differences versus the corresponding control (vehicle) group are denoted as: *p<0.05, **p<0.01, ***p<0.001.” for “significant.”

With `C[C@H]1C[C@@H]2[C@H]([C@@H](O)C[C@@]3(C)[C@H]2CC[C@]3(O)C(=O)COC(=O)CCC(=O)O)[C@@]2(C)C=CC(=O)C=C12` [Methylprednisolone 21-hemisuccinate] the “Histology Score Distal Colon” value ([1]; 1 mg/kg p.o. daily for 10 days) was 3.70, the “Histology Score Proximal Colon” value ([1]; 1 mg/kg p.o. daily for 10 days) was 2.80* and the DAI score ([1]; Day 1) was 0.00. It also gave a DAI score ([1]; Day 2) of 0.10, a DAI score ([1]; Day 3) of 0.00 and a DAI score ([1]; Day 4) of 2.60. For the same molecule, the DAI score ([1]; Day 5) was 2.50, the DAI score ([1]; Day 6) was 2.60 and the DAI score ([1]; Day 7) was 3.10. For the same molecule, the DAI score ([1]; Day 8) was 2.50*, the DAI score ([1]; Day 9) was 3.80* and the DAI score ([1]; Day 10) was 4.90**. The “Colon TNF-α concentration” value (TNF-α) was 1833 pg/g tissue, the “Histology Score Distal Colon” value ([2]; 1 mg/kg p.o. once daily) was 3.00*** and the “Histology Score Proximal Colon” value ([2]; 1 mg/kg p.o. once daily) was 1.40. It also gave a DAI score ([2]; 1 mg/kg p.o. once daily, Day 1) of 0.00, a DAI score ([2]; 1 mg/kg p.o. once daily, Day 2) of 0.50 and a DAI score ([2]; 1 mg/kg p.o. once daily, Day 3) of 0.50. The DAI score ([2]; 1 mg/kg p.o. once daily, Day 4) was 0.40, the DAI score ([2]; 1 mg/kg p.o. once daily, Day 5) was 1.10 and the DAI score ([2]; 1 mg/kg p.o. once daily, Day 6) was 3.80. The DAI score ([2]; 1 mg/kg p.o. once daily, Day 7) was 5.90, the DAI score ([2]; 1 mg/kg p.o. once daily, Day 8) was 6.40 and the DAI score ([2]; 1 mg/kg p.o. once daily, Day 9) was 5.60*. The DAI score ([2]; 1 mg/kg p.o. once daily, Day 10) was 5.60*, the “Histology Score Distal Colon” value ([2]; 10 mg/kg p.o. once daily) was 2.70*** and the “Histology Score Proximal Colon” value ([2]; 10 mg/kg p.o. once daily) was 1.40. The DAI score ([2]; 10 mg/kg p.o. once daily, Day 1) was 0.00, the DAI score ([2]; 10 mg/kg p.o. once daily, Day 2) was 0.30 and the DAI score ([2]; 10 mg/kg p.o. once daily, Day 3) was 0.70. It also gave a DAI score ([2]; 10 mg/kg p.o. once daily, Day 4) of 0.80, a DAI score ([2]; 10 mg/kg p.o. once daily, Day 5) of 1.30 and a DAI score ([2]; 10 mg/kg p.o. once daily, Day 6) of 2.00. The DAI score ([2]; 10 mg/kg p.o. once daily, Day 7) was 3.20**, the DAI score ([2]; 10 mg/kg p.o. once daily, Day 8) was 4.80** and the DAI score ([2]; 10 mg/kg p.o. once daily, Day 9) was 5.20*. For the same molecule, the DAI score ([2]; 10 mg/kg p.o. once daily, Day 10) was 4.00***.
